Source: patent USRE46943E1, “Radioprotector compounds and methods” (PETER MACCALLUM CANCER INSTITUTE, priority 2010, dated 2018)
Where two headings read alike, the source gives them in different places.

Columns and labels:
[1] = test system: transformed human keratinocyte cell line (FEP 1811); test: Clonogenic survival cell culture assay for radioprotective activity (12 Gy 137Cs gamma irradiation); type: cell-based
Source text: PF is defined as a ratio of survival at maximum protection Sm and survival after irradiation only So: PF=Sm/So. DMF is defined as a ratio of doses that result in survival level of Sm in the presence Dp and the absence Dc of radioprotector: DMF=Dp/Dc. DMF10 is define in a similar way except that instead of Sm a survival at 10 microM of radioprotector is used.
PF (Protection Factor) is defined as a ratio of survival at maximum protection Sm and survival after irradiation only So:PF=Sm/So. DMF (Dose Modification Factor) is defined as a ratio of doses that result in survival level of Sm in the presence (Dp) and the absence (Dc) of radioprotector: DMF=Dp/Dc. DMF10 is defined in a similar way except that instead of Sm a survival at 10 microM of radioprotector is used.
(§1) • i. […] In appropriate cases, tautomers are drawn to illustrate potential hydrogen-bond donating configurations into the minor groove of DNA. • ii. 2-Amino-4-(5′-(4″-methylpiperazin-1″-yl)benzimidazol-2′-yl)aniline was prepared by hydrogenation of 4-(5′-(4″-methylpiperazin-1″-yl)benzimidazol-2′-yl)-2-nitroaniline, using a modification of the method of Kelly et al, Aust. […] 2-Amino-4-(5′-(piperidin-1″-yl)benzimidazol-2′-yl)aniline was prepared by hydrogenation of 2-nitro-4-(5′-(piperidin-1″-yl)benzimidazol-2′-yl)aniline, using a modification of the method of Kelly et al, Aust. […] Ethyl 4-amino-3-nitrobenzenecarboximidate hydrochloride was prepared by reaction of 4-amino-3-nitrobenzonitrile with dry HCl gas in ethanol, using the method of Kelly et al, Aust. […] 5-(4′-Methylpiperazin-1′-yl)-2-nitroaniline was prepared using a modification of the method of Kelly et al, Aust. […] The following chemicals were obtained from the chemical suppliers indicated: 2-furaldehyde (Aldrich), 2-pyridinecarboxaldehyde (Aldrich), 3-fluoropyridine-2-carbaldehyde (Maybridge), 3-trifluoromethylpyridine-2-carboxaldehyde (Apollo Scientific), 6-methyl-2-pyridinecarboxaldehyde (Matrix Scientific), 5-methylpyridine-2-carbonitrile (Apollo Scientific), 4-methyl-2-pyridinecarbonitrile (Aldrich), 4-chloro-2-pyridinecarbonitrile (Aldrich), 4-methoxypicolinonitrile (Combi-Blocks), pyrazinecarbonitrile (Aldrich), 2-quinolinecarbonitrile (Aldrich), 3-isoquinolinecarbonitrile (Aldrich), 1-isoquinolinecarboxylic acid (Aldrich), indazole-3-carboxylic acid (Aldrich), 2-hydroxynicotinic acid (Aldrich), 4-hydroxypiperidine (Aldrich), 1-methylhomopiperazine (Aldrich), 3-hydroxypiperidine (Aldrich), 4-(N-BOC-amino)piperidine (Aldrich), 4-methoxypiperidine (Acros), 4-methyl-3-nitrobenzonitrile (Aldrich), 5-chloro-2-nitroaniline (Aldrich), 2-cyanopyridine (Aldrich), methyl 4-amino-2-methoxybenzoic acid (Aldrich), 4-(trifluoromethyl)-2-pyridinecarbonitrile (Matrix Scientific), cis-2,6-dimethylmorphoiline (Acros), 5-(trifluoromethyl)-2-pyridinecarbonitrile (Advanced Chemical Intermediates) and 5-fluoro-2-pyridinecarbonitrile (Advanced Chemical Intermediates). • ix. […] Melting points were determined using an Electrothermal melting point apparatus, and are uncorrected. […] The abbreviations s for singlet, d for doublet, t for triplet, q for quartet, br for broad and m for muitiplet were used in the assignments of multiplicity. A value approximating the centre of a multiplet is quoted. […] The addition of a few drops of acetic acid to methanol-d4 solutions was used to enhance solubility for the acquisition of ^13C nmr spectra. Mass spectra were recorded on a Micromass Quattro II mass spectrometer and accurate mass analyses were carried out by the School of Chemistry at the University of Melbourne on a Finnigan LTQ-FT model high resolution mass spectrometer. Thin layer chromatography (TLC) was carried out using Merck silica gel 60 F254 aluminium sheets or Merck neutral aluminium oxide 150 F254 sheets. Flash column chromatography was carried out using Ajax silica gel 230-400 mesh. • xi.

[2] = test system: transformed human keratinocyte cell line (FEP 1811); test: Clonogenic survival cell culture assay for cytotoxicity; type: cell-based; settings: un-irradiated keratinocytes, one hour drug exposure, colonies counted after eight days, read-out: C50 (concentration of radioprotector that results in 50% clonogenic survival)
Method: as §1, with “xi. […] The details are described in detail in Martin et al (4) (the disclosure of which is included herein in its entirety by way of reference), but briefly, mid-log phase monolayer cultures are incubated with various concentrations of the test drugs for one hour, after which the monolayers are washed and dispersed into single cell suspensions using pronase, and finally appropriate numbers of cells are dispensed into Petri dishes. Colonies are counted after eight days incubation. […] The irradiation (with a dose rate of 0.6 Gy per minute) is started 30 minutes after addition of the test drug. After completion of irradiation, incubation of cultures is continued until the total time of exposure to the drug reaches 60 minutes. Cultures are then washed and plated for clonogenic survival as described for the cytotoxicity experiments.” for “xi.”

[3] = 12 Gy, 10 microM radioprotector
[4] = 12 Gy, DMF=Dp/Dc at survival level Sm
[5] = 12 Gy, survival at maximum protection vs irradiation only
[6] = Homo sapiens, Keratinocyte, light or radiation study

Compound | DMF10 (dose modification factor at a concentration of 10 microM of radioprotector) [1, 3] | DMFm (dose modification factor at maximum protection) [1, 4] | PF (protection factor = Sm/So) [1, 5] | IC50 [2] | IC50 [2, 6] | DMF10 (dose modification factor at a concentration of 10 microM of radioprotector) [1] | DMFm (dose modification factor at maximum protection) [1] | PF (protection factor = Sm/So) [1]
CN1CCN(c2ccc3[nH]c(-c4ccc5[nH]c(-c6ccc7ccccc7n6)nc5c4)nc3c2)CC1 [Example 13, 2-(5′-(5″-(4′″-Methylpiperazin-1′″-yl)benzimidazol-2″-yl)benzimidazol-2′-yl)quinoline] | 1.65 | 1.66 | 11.0 | 14 µM | – | – | – | –
CN1CCN(c2ccc3[nH]c(-c4ccc5[nH]c(-c6nn(C)c7ccccc67)nc5c4)nc3c2)CC1 [Example 17, 1-methyl-3-(5′-(5″-(4′″-methylpiperazin-1′″-yl)benzimidazol-2″-yl)benzimidazol-2′-yl)indazole] | 1.27 | 1.68 | 10.9 | 76.5 µM | – | – | – | –
CCCCN1CCN(c2ccc3nc(-c4ccc5nc(-c6ccccn6)[nH]c5c4)[nH]c3c2)CC1 [Example 34, 2-(5′-(5″-(4′″-Butylpiperazin-1′″-yl)benzimidazol-2″-yl)benzimidazol-2′-yl)pyridine] | 2.05 | 2.27 | 27.6 | – | 47 µM | – | – | –
COCCNc1ccc2[nH]c(-c3ccc4nc(-c5ccccn5)[nH]c4c3)nc2c1 [Example 35, 2-(5′-(5″-(2′″-methoxyethylamino)benzimidazol-2″-yl)benzimidazol-2′-yl)pyridine] | 1.66 | 2.19 | 21.9 | – | 126 µM | – | – | –
CN(C)CCNc1ccc2[nH]c(-c3ccc4[nH]c(-c5ccccn5)nc4c3)nc2c1 [Example 43, 2-(5′-(5″-(2′″-(dimethylamino)ethylamino)benzimidazol-2″-yl)benzimidazol-2′-yl)pyridine] | 1.28 | 1.61 | 11.2 | 118 µM | – | – | – | –
CN1CCN(c2ccc3nc(-c4ccc5nc(-c6ccc(F)cn6)[nH]c5c4)[nH]c3c2)CC1 [Example 47, 5-fluoro-2-(5′-(5″-(4′″-methylpiperazin-1″-yl)benzimidazol-2″-yl)benzimidazol-2′-yl)pyridine] | 2.20 | 2.46 | 40.0 | – | 538 µM | – | – | –
2-(5′-(5″-(4′″-methylpiperazin-1′″-yl)-1H-indol-2″-yl)benzimidazol-2′-yl)pyridine [Example 53] | 1.21 | 1.30 | 4.9 | 34.1 µM | – | – | – | –
2-(5′-(5″-(2′″-(dimethylamino)ethoxy)benzimidazol-2″-yl)benzimidazol-2′-yl)pyridine [Example 44] | – | – | – | 146 µM | – | 1.50 | 1.88 | 17.6
c1ccc(-c2nc3ccc(-c4nc5ccc(N6CCSCC6)cc5[nH]4)cc3[nH]2)nc1 [Example 36, 2-(5′-(5″-thiomorpholinobenzimidazol-2″-yl)benzimidazol-2′-yl)pyridine] | 1.49 | 1.53 | 16.4 | – | 31.3 µM | – | – | –
C[C@@H]1CN(c2ccc3nc(-c4ccc5nc(-c6ccccn6)[nH]c5c4)[nH]c3c2)C[C@H](C)O1 [Example 52, 2-(5′-(5″-(cis-2′″,6′″-dimethylmorpholino)benzimidazol-2″-yl)benzimidazol-2′-yl)pyridine] | 1.40 | 1.75 | 55.9 | – | 134 µM | – | – | –
CN(CCO)c1ccc2[nH]c(-c3ccc4[nH]c(-c5ccccn5)nc4c3)nc2c1 [Example 54, 2-(5′-(5″-(3′″-hydroxyethyl-1′″-methylamino)benzimidazol-2″-yl)benzimidazol-2′-yl)pyridine] | 1.15 | 1.87 | 20.2 | – | 94.3 µM | – | – | –
